Test results taken from patent publication US12583856B2, “Inhibitors of protein kinase A” (Blueprint Medicines Corporation, priority 2021, dated 2026).

Legend:
PRKACA = target: T1, PRKACA (Homo sapiens, UniProt P17612); assay: PRKACA assay at Km (EZ Reader 2 electrophoretic mobility shift); assay type: biochemical; settings: 5 μM ATP (Km), 1 μM Kemptide, 90 minutes at 25 C; read-out: Enz PRKACA IC50
T1 construct: purchased Millipore 539482
Method in brief: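 PRKACA (0.18 nM) was incubated with 1 μM 5-FAM-Kemptide and 5 μM ATP for 90 min at 25 °C in HEPES pH 7.5 buffer with 10 mM MgCl2, 1% DMSO, then stopped with EDTA. Substrate and product were separated by microfluidic mobility shift, and IC50 was taken from a 4-parameter fit of normalised inhibition.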

[1] = test system: PKA (phosphorylation of VASP on Serine 157); assay: Cellular potency assay: P-VASP(157) HTRF in Forskolin-stimulated Huh7 cells; assay type: cell-based; settings: Homo sapiens, Huh-7, 4 hours compound, 5 μM Forskolin 30 minutes, read-out: Phos VASP(S157) IC50
Method in brief: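 Huh7 cells in serum-free DMEM were pretreated with compound for 4 h at 37 °C (0.24% DMSO final), then stimulated with 5 μM forskolin for 30 min. Lysates were assayed for phospho-VASP Ser157 by HTRF sandwich immunoassay, read at 665/620 nm.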

[2] = test system: FL-HCC (LI5132) PDX tumors; assay: Efficacy study in FL-HCC (LI5132) patient-derived xenograft (PDX) model; assay type: in vivo; settings: oral delivery; compound 144: 30 mg/kg PO QDX34; FIG. 3
Description: Efficacy: To establish the PDX model, 72 mice were inoculated with patient tumor cells to yield at least 36 mice with tumors of the required size. 18 of these mice were selected for the study.

PRKACA-DNAJB1 = target: T2, PRKACA-DNAJB1 (Homo sapiens, UniProt P17612); assay: PRKACA-DNAJB1 enzyme assay (EZ Reader 2 electrophoretic mobility shift); assay type: biochemical; settings: read-out: Enz PRKACA-DNAJB1 IC50
T2 construct: DNAJB1 (fusion partner, P25685); the other entry of the earlier key: DNAJB1 (P25685, DnaJ homolog subfamily B member 1)
Procedure: A Perkin Elmer electrophoretic mobility shift platform (the EZ Reader 2) was used to assess the activity of test compounds against a kinase of interest. Fluorescently labeled substrate peptide was incubated in the presence of kinase, ATP, and the test compound, so that a portion of the peptide was phosphorylated by the enzyme. At the end of the reaction, the mix of phosphorylated (product) and non-phosphorylated (substrate) peptide containing solutions was passed through the microfluidic system of the Perkin Elmer EZ Reader 2 under an applied potential difference. The presence of the phosphate group on the product peptide provided a difference in mass and charge between those of the substrate peptide, resulting in a separation of the substrate and product pools in the sample. As the stopped solutions passed under the instrument's LED light the phosphorylated and un-phosphorylated fluorophore bound peptides were detected and resolved as separate peaks. The ratio between these peaks therefore reflected the test compound's impact on the kinase at that concentration in that well under those conditions.

Row | SMILES | IC50 (PRKACA) | IC50 [1] | FLC tumor growth inhibition [2] | tolerability of the dose [2] | IC50 (PRKACA-DNAJB1)
1 | O=C(N[C@@H]1c2ccccc2C[C@H]1N1CCCC1)c1ccc(-c2ccnc3[nH]ccc23)nc1 [Compound 144, N-[(1R,2R)-2-(Pyrrolidin-1-yl)-2,3-dihydro-1H-inden-1-yl]-6-{1H-pyrrolo[2,3-b]pyridin-4-yl}pyridine-3-carboxamide] | ≤ 1 nM | < 50 nM | significant FLC tumor growth inhibition | tolerated | –
2 | Cc1c[nH]c2nccc(-c3ccc(C(=O)N[C@@H]4c5c(F)cc(C(F)F)cc5C[C@@H]4O)cn3)c12 [Compound 162, N-[(1R,2S)-5-(Difluoromethyl)-7-fluoro-2-hydroxy-2,3-dihydro-1H-inden-1-yl]-6-{3-methyl-1H-pyrrolo[2,3-b]pyridin-4-yl}pyridine-3-carboxamide] | ≤ 1 nM | < 50 nM | significant FLC tumor growth inhibition | tolerated | ≤ 1 nM
3 | Cc1c[nH]c2nccc(-c3ccc(C(=O)N[C@@H]4c5c(ccc(F)c5F)C[C@H]4N4CCCC4)cn3)c12 [Compound 175] | ≤ 1 nM | < 50 nM | – | – | ≤ 1 nM
4 | O=C(N[C@@H]1c2c(Cl)cccc2C[C@H]1N1CC[C@@H](O)C1)c1ccc(-c2ccnc3[nH]ccc23)cn1 [Compound 176] | ≤ 1 nM | < 50 nM | – | – | ≤ 1 nM
5 | C[C@]1(O)CCN([C@@H]2Cc3cccc(Cl)c3[C@H]2NC(=O)c2ccc(-c3ccnc4[nH]ccc34)nc2)C1 [Compound 180] | ≤ 1 nM | < 50 nM | – | – | ≤ 1 nM
6 | O=C(N[C@@H]1c2c(Cl)cccc2C[C@H]1N1C[C@H](O)[C@@H](F)C1)c1ccc(-c2ccnc3[nH]ccc23)nc1 [Compound 185] | ≤ 1 nM | < 50 nM | – | – | ≤ 1 nM
7 | O=C(N[C@@H]1c2c(Cl)cccc2C[C@H]1N1C[C@@H](F)[C@@H](O)C1)c1ccc(-c2ccnc3[nH]ccc23)nc1 [Compound 186] | ≤ 1 nM | < 50 nM | – | – | 1.01 to 5 nM
8 | CO[C@@H]1CCN([C@@H]2Cc3cccc(Cl)c3[C@H]2NC(=O)c2ccc(-c3ccnc4[nH]cc(C)c34)nc2)C1 [Compound 188] | ≤ 1 nM | 0.01 to 100 nM | – | – | 1.01 to 5 nM
9 | CO[C@@H]1CCN([C@@H]2Cc3cccc(Cl)c3[C@H]2NC(=O)c2ccc(-c3ccnc4[nH]cc(F)c34)nc2)C1 [Compound 189] | ≤ 1 nM | 0.01 to 100 nM | – | – | ≤ 1 nM
10 | O=C(N[C@@H]1c2c(F)cc(C(F)F)cc2C[C@H]1N1CC[C@H](F)C1)c1ccc(-c2ccnc3[nH]ccc23)nc1 [Compound 190] | ≤ 1 nM | < 50 nM | – | – | ≤ 1 nM
11 | CN(C)C(=O)[C@@H]1CCCN1[C@@H]1Cc2cccc(Cl)c2[C@H]1NC(=O)c1ccc(-c2ccnc3[nH]ccc23)nc1 [Compound 191] | ≤ 1 nM | < 50 nM | – | – | ≤ 1 nM
